Measured values: ChEMBL document CHEMBL1148023, “Synthesis and antibacterial activity of derivatives of 6-O-allylic acylides” (2007)
Converted amounts (≈) assume the structure as drawn.

How the values were obtained:
Type in all cases: functional
Staphylococcus aureus [1] = experiment: Antibacterial activity against methicillin-resistant Staphylococcus aureus 01-429 by broth microdilution method
Staphylococcus aureus [2] = experiment: Antibacterial activity against methicillin-resistant Staphylococcus aureus 01-433 by broth microdilution method
Streptococcus pneumoniae [3] = experiment: Antibacterial activity against Streptococcus pneumoniae ATCC 49619 by broth microdilution method
[4] = tested on: Staphylococcus epidermidis; experiment: Antibacterial activity against methicillin-resistant Staphylococcus epidermidis 01-1056 by broth microdilution method
[5] = tested on: Staphylococcus epidermidis; experiment: Antibacterial activity against methicillin-resistant Staphylococcus epidermidis 01-1059 by broth microdilution method
Staphylococcus aureus [6] = experiment: Antibacterial activity against methicillin-sensitive Staphylococcus aureus 01-481 by broth microdilution method
Streptococcus pneumoniae [7] = experiment: Antibacterial activity against erythromycin-resistant Streptococcus pneumoniae 03-458 by broth microdilution method
[8] = tested on: Staphylococcus epidermidis; experiment: Antibacterial activity against methicillin-sensitive Staphylococcus epidermidis 01-1091 by broth microdilution method
Streptococcus pyogenes [9] = experiment: Antibacterial activity against erythromycin-susceptible Streptococcus pyogenes 01-740 by broth microdilution method
[10] = tested on: Staphylococcus epidermidis; experiment: Antibacterial activity against methicillin-sensitive Staphylococcus epidermidis 01-1004 by broth microdilution method
Streptococcus pneumoniae [11] = experiment: Antibacterial activity against erythromycin-resistant Streptococcus pneumoniae 03-436 by broth microdilution method
Staphylococcus aureus [12] = experiment: Antibacterial activity against methicillin-resistant Staphylococcus aureus 01-483 by broth microdilution method
Streptococcus pyogenes [13] = experiment: Antibacterial activity against erythromycin-resistant Streptococcus pyogenes 03-680 by broth microdilution method
[14] = tested on: Staphylococcus epidermidis; experiment: Antibacterial activity against methicillin-sensitive Staphylococcus epidermidis 01-1005 by broth microdilution method
Staphylococcus aureus [15] = experiment: Antibacterial activity against methicillin-sensitive Staphylococcus aureus 01-430 by broth microdilution method
[16] = tested on: Staphylococcus epidermidis; experiment: Antibacterial activity against methicillin-resistant Staphylococcus epidermidis 01-1090 by broth microdilution method
Streptococcus pyogenes [17] = experiment: Antibacterial activity against erythromycin-susceptible Streptococcus pyogenes 01-804 by broth microdilution method
Streptococcus pneumoniae [18] = experiment: Antibacterial activity against erythromycin-resistant Streptococcus pneumoniae 03-451 by broth microdilution method
Staphylococcus aureus [19] = experiment: Antibacterial activity against methicillin-sensitive Staphylococcus aureus 01-431 by broth microdilution method
Streptococcus pyogenes [20] = experiment: Antibacterial activity against erythromycin-susceptible Streptococcus pyogenes 01-469 by broth microdilution method

`C=CCO[C@@H]1C[C@@H](C)C(=O)[C@H](C)[C@H]2OC(=O)O[C@]2(C)[C@@H](CC)OC(=O)[C@H](C)[C@@H](OC(=O)Cc2cccnc2)[C@H](C)[C@H]1O[C@@H]1O[C@H](C)C[C@H](N(C)C)[C@H]1O` was tested, and the MIC (Staphylococcus aureus [1]) was 32 µg/mL (≈ 42.8 µM), the MIC (Staphylococcus aureus [2]) was 32 µg/mL (≈ 42.8 µM) and the MIC (Streptococcus pneumoniae [3]) was 0.25 µg/mL (≈ 0.335 µM). It also gave an MIC [4] of 32 µg/mL (≈ 42.8 µM), an MIC [5] of 32 µg/mL (≈ 42.8 µM) and an MIC (Staphylococcus aureus [6]) of 2 µg/mL (≈ 2.68 µM). The MIC (Streptococcus pneumoniae [7]) was 2 µg/mL (≈ 2.68 µM), the MIC [8] was 0.5 µg/mL (≈ 0.669 µM) and the MIC (Streptococcus pyogenes [9]) was 0.125 µg/mL (≈ 0.167 µM). For the same molecule, the MIC [10] was 0.5 µg/mL (≈ 0.669 µM), the MIC (Streptococcus pneumoniae [11]) was 2 µg/mL (≈ 2.68 µM) and the MIC (Staphylococcus aureus [12]) was 8 µg/mL (≈ 10.7 µM). For the same molecule, the MIC (Streptococcus pyogenes [13]) was 16 µg/mL (≈ 21.4 µM), the MIC [14] was 0.5 µg/mL (≈ 0.669 µM) and the MIC (Staphylococcus aureus [15]) was 1 µg/mL (≈ 1.34 µM). For the same molecule, the MIC [16] was 2 µg/mL (≈ 2.68 µM), the MIC (Streptococcus pyogenes [17]) was 0.125 µg/mL (≈ 0.167 µM) and the MIC (Streptococcus pneumoniae [18]) was 2 µg/mL (≈ 2.68 µM). The MIC (Staphylococcus aureus [19]) was 1 µg/mL (≈ 1.34 µM) and the MIC (Streptococcus pyogenes [20]) was 0.125 µg/mL (≈ 0.167 µM).
`C=CCO[C@@H]1C[C@@H](C)C(=O)[C@H](C)[C@H]2OC(=O)O[C@]2(C)[C@@H](CC)OC(=O)[C@H](C)[C@@H](OC(=O)Cc2cccc(F)c2)[C@H](C)[C@H]1O[C@@H]1O[C@H](C)C[C@H](N(C)C)[C@H]1O` showed an MIC (Staphylococcus aureus [1]) of 16 µg/mL (≈ 20.9 µM), an MIC (Staphylococcus aureus [2]) of 16 µg/mL (≈ 20.9 µM) and an MIC (Streptococcus pneumoniae [3]) of 0.125 µg/mL (≈ 0.164 µM). It also gave an MIC [4] of 32 µg/mL (≈ 41.9 µM), an MIC [5] of 2 µg/mL (≈ 2.62 µM) and an MIC (Staphylococcus aureus [6]) of 2 µg/mL (≈ 2.62 µM). For the same molecule, the MIC (Streptococcus pneumoniae [7]) was 2 µg/mL (≈ 2.62 µM), the MIC [8] was 1 µg/mL (≈ 1.31 µM) and the MIC (Streptococcus pyogenes [9]) was 0.125 µg/mL (≈ 0.164 µM). For the same molecule, the MIC [10] was 1 µg/mL (≈ 1.31 µM), the MIC (Streptococcus pneumoniae [11]) was 8 µg/mL (≈ 10.5 µM) and the MIC (Staphylococcus aureus [12]) was 2 µg/mL (≈ 2.62 µM). The MIC (Streptococcus pyogenes [13]) was 16 µg/mL (≈ 20.9 µM), the MIC [14] was 1 µg/mL (≈ 1.31 µM) and the MIC (Staphylococcus aureus [15]) was 1 µg/mL (≈ 1.31 µM). It also gave an MIC [16] of 1 µg/mL (≈ 1.31 µM), an MIC (Streptococcus pyogenes [17]) of 0.125 µg/mL (≈ 0.164 µM) and an MIC (Streptococcus pneumoniae [18]) of 4 µg/mL (≈ 5.24 µM). It also gave an MIC (Staphylococcus aureus [19]) of 1 µg/mL (≈ 1.31 µM) and an MIC (Streptococcus pyogenes [20]) of 0.125 µg/mL (≈ 0.164 µM).
Molecule `C=CCO[C@@H]1C[C@@H](C)C(=O)[C@H](C)[C@H]2OC(=O)O[C@]2(C)[C@@H](CC)OC(=O)[C@H](C)[C@@H](OC(=O)COc2ccccc2)[C@H](C)[C@H]1OC1O[C@H](C)C[C@H](N(C)C)[C@H]1O` (stereo not given in full) has an MIC (Staphylococcus aureus [1]) of 32 µg/mL (≈ 42 µM), an MIC (Staphylococcus aureus [2]) of 32 µg/mL (≈ 42 µM) and an MIC (Streptococcus pneumoniae [3]) of 2 µg/mL (≈ 2.62 µM). The MIC [4] was 32 µg/mL (≈ 42 µM), the MIC [5] was 32 µg/mL (≈ 42 µM) and the MIC (Staphylococcus aureus [6]) was 32 µg/mL (≈ 42 µM). It also gave an MIC (Streptococcus pneumoniae [7]) of 16 µg/mL (≈ 21 µM), an MIC [8] of 8 µg/mL (≈ 10.5 µM) and an MIC (Streptococcus pyogenes [9]) of 0.5 µg/mL (≈ 0.656 µM). For the same molecule, the MIC [10] was 8 µg/mL (≈ 10.5 µM), the MIC (Streptococcus pneumoniae [11]) was 32 µg/mL (≈ 42 µM) and the MIC (Staphylococcus aureus [12]) was 32 µg/mL (≈ 42 µM). The MIC (Streptococcus pyogenes [13]) was 16 µg/mL (≈ 21 µM), the MIC [14] was 8 µg/mL (≈ 10.5 µM) and the MIC (Staphylococcus aureus [15]) was 16 µg/mL (≈ 21 µM). For the same molecule, the MIC [16] was 32 µg/mL (≈ 42 µM), the MIC (Streptococcus pyogenes [17]) was 1 µg/mL (≈ 1.31 µM) and the MIC (Streptococcus pneumoniae [18]) was 16 µg/mL (≈ 21 µM). The MIC (Staphylococcus aureus [19]) was 16 µg/mL (≈ 21 µM) and the MIC (Streptococcus pyogenes [20]) was 0.5 µg/mL (≈ 0.656 µM).
`C=CCO[C@@H]1C[C@@H](C)C(=O)[C@H](C)[C@H]2OC(=O)O[C@]2(C)[C@@H](CC)OC(=O)[C@H](C)[C@@H](OC(=O)Cc2ccc(Cl)cc2)[C@H](C)[C@H]1OC1O[C@H](C)C[C@H](N(C)C)[C@H]1O` (stereo not given in full) was tested, and the MIC (Staphylococcus aureus [1]) was 16 µg/mL (≈ 20.5 µM), the MIC (Staphylococcus aureus [2]) was 16 µg/mL (≈ 20.5 µM) and the MIC (Streptococcus pneumoniae [3]) was 1 µg/mL (≈ 1.28 µM). It also gave an MIC [4] of 32 µg/mL (≈ 41 µM), an MIC [5] of 16 µg/mL (≈ 20.5 µM) and an MIC (Staphylococcus aureus [6]) of 8 µg/mL (≈ 10.3 µM). For the same molecule, the MIC (Streptococcus pneumoniae [7]) was 8 µg/mL (≈ 10.3 µM), the MIC [8] was 2 µg/mL (≈ 2.56 µM) and the MIC (Streptococcus pyogenes [9]) was 0.25 µg/mL (≈ 0.32 µM). The MIC [10] was 2 µg/mL (≈ 2.56 µM), the MIC (Streptococcus pneumoniae [11]) was 16 µg/mL (≈ 20.5 µM) and the MIC (Staphylococcus aureus [12]) was 16 µg/mL (≈ 20.5 µM). For the same molecule, the MIC (Streptococcus pyogenes [13]) was 8 µg/mL (≈ 10.3 µM), the MIC [14] was 2 µg/mL (≈ 2.56 µM) and the MIC (Staphylococcus aureus [15]) was 4 µg/mL (≈ 5.13 µM). It also gave an MIC [16] of 16 µg/mL (≈ 20.5 µM), an MIC (Streptococcus pyogenes [17]) of 0.5 µg/mL (≈ 0.641 µM) and an MIC (Streptococcus pneumoniae [18]) of 8 µg/mL (≈ 10.3 µM). It also gave an MIC (Staphylococcus aureus [19]) of 4 µg/mL (≈ 5.13 µM) and an MIC (Streptococcus pyogenes [20]) of 0.5 µg/mL (≈ 0.641 µM).
